Assay results from patent US8802700B2 (Vertex Pharmaceuticals Incorporated, priority 2010, dated 2014).

Target: T1, ΔF508-CFTR (Homo sapiens, UniProt P13569, DEL508-508)
T1 construct: expressed in transfected cells
Assay: Membrane potential optical assay (FRET voltage-sensor dyes, VIPR), identification of potentiator compounds
Type: cell-based
Conditions: Table 3, assay not given; for Emax: read-out: % Activity (% Efficacy, relative efficacy)
Method in brief: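 NIH3T3 mouse fibroblasts stably expressing ΔF508-CFTR, cultured 24 h at 27 °C, were loaded with FRET voltage dyes CC2-DMPE and DiSBAC2(3). Double-addition format: first addition of Cl⁻-free (gluconate) medium with or without compound; membrane-potential change read as fluorescence on VIPR II.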

T1 sequence (P13569 with tags, fused parts or gaps DEL508-508): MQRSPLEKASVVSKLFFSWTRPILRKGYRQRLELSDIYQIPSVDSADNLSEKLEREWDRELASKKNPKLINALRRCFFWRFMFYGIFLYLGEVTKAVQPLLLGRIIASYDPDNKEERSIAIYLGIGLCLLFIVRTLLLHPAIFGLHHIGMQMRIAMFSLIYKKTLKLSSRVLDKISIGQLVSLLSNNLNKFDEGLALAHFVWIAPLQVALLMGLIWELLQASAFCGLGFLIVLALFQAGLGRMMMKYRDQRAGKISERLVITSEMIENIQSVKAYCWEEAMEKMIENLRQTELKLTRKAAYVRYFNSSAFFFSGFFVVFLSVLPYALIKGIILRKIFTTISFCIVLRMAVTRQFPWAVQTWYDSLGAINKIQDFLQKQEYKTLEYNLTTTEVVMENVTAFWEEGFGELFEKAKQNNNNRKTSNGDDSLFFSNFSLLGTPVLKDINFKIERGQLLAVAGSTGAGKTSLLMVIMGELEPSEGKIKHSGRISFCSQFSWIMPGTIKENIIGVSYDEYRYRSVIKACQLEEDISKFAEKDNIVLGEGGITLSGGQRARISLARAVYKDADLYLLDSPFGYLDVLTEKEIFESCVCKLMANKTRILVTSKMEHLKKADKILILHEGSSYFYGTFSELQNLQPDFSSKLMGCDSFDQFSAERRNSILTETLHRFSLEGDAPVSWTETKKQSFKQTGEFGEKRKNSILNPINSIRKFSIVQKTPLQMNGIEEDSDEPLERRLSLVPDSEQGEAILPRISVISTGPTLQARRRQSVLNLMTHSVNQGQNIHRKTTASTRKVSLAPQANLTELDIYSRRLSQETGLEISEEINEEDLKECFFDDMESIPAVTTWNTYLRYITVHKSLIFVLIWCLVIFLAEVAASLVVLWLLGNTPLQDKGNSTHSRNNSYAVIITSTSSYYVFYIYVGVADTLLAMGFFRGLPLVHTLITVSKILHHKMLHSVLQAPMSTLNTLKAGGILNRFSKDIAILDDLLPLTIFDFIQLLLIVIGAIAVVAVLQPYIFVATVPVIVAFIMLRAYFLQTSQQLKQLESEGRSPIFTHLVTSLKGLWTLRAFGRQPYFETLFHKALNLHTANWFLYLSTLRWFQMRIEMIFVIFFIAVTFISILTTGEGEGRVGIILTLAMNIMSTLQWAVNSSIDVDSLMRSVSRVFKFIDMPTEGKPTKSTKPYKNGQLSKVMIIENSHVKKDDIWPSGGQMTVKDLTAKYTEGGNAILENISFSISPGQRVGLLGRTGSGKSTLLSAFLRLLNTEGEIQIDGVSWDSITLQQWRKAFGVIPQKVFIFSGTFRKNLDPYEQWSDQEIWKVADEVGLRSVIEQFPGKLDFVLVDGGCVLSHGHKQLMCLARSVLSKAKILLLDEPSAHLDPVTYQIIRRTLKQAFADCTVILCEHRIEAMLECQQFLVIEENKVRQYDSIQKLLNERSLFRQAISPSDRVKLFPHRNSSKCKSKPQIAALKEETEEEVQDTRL

SMILES	EC50	Emax
CCOC(=O)Nc1ccc(CC)c(NC(=O)c2c[nH]c3ccccc3c2=O)c1 [Compound 472, [4-ethyl-3-[(4-oxo-1H-quinolin-3-yl)carbonylamino]phenyl]aminoformic acid ethyl ester]	< 10 µM	25 to 100%
CCOC(=O)NCC(C)(C)c1ccc(NC(=O)c2c[nH]c3ccccc3c2=O)cc1 [Compound 119, [2-methyl-2-[4-[(4-oxo-1H-quinolin-3-yl)carbonylamino]phenyl]-propyl]aminoformic acid ethyl ester]	–	25 to 100%
COc1ccc2[nH]cc(C(=O)Nc3cc4[nH]ccc4cc3C(C)(C)C)c(=O)c2c1 [Compound 533, 6-methoxy-4-oxo-N-(5-tert-butyl-1H-indol-6-yl)-1H-quinoline-3-carboxamide]	–	> 100%
COC(=O)NCC(C)(C)c1ccc(NC(=O)c2c[nH]c3ccccc3c2=O)cc1 [Compound 323, [2-Methyl-2-[4-[(4-oxo-1H-quinolin-3-yl)carbonylamino]phenyl]-propyl]aminoformic acid methyl ester]	–	25 to 100%
O=C(Nc1ccc(C(F)(F)F)c(O)c1)c1c[nH]c2ccc(F)cc2c1=O [Compound 650, 6-fluoro-N-[3-hydroxy-4-(trifluoromethyl)phenyl]-4-oxo-1H-quinoline-3-carboxamide]	–	25 to 100%
CCc1ccc(N(C)C)cc1NC(=O)c1c[nH]c2ccccc2c1=O [Compound 409, N-(5-dimethylamino-2-ethyl-phenyl)-4-oxo-1H-quinoline-3-carboxamide]	–	25 to 100%
COc1ccc(NC(C)=O)cc1NC(=O)c1c[nH]c2ccccc2c1=O [Compound 250, N-(5-acetylamino-2-methoxy-phenyl)-4-oxo-1H-quinoline-3-carboxamide]	–	< 25%
O=C(Nc1cccc(C(F)(F)F)c1)c1c[nH]c2ccccc2c1=O [Compound 164, 4-oxo-N-[3-(trifluoromethyl)phenyl]-1H-quinoline-3-carboxamide]	–	25 to 100%
O=C(Nc1ccc2c(c1)NCCO2)c1c[nH]c2ccccc2c1=O [Compound 105, 1,4-dihydro-N-(3,4-dihydro-2H-benzo[b][1,4]oxazin-6-yl)-4-oxoquinoline-3-carboxamide]	–	25 to 100%
CCOC(=O)c1cc2cc[nH]c2cc1NC(=O)c1c[nH]c2ccccc2c1=O [Compound 188, 6-[(4-oxo-1H-quinolin-3-yl)carbonylamino]-1H-indole-5-carboxylic acid ethyl ester]	–	25 to 100%
Cc1ccc(NC(=O)c2c[nH]c3ccccc3c2=O)c(C)c1 [Compound 281, N-(2,4-dimethylphenyl)-4-oxo-1H-quinoline-3-carboxamide]	–	25 to 100%
O=C(Nc1ccncc1)c1c[nH]c2ccccc2c1=O [Compound 53, 4-oxo-N-(4-pyridyl)-1H-quinoline-3-carboxamide]	–	< 25%
COc1ncc(-c2ccccc2NC(=O)c2c[nH]c3ccccc3c2=O)c(OC)n1 [Compound 97, N-[2-(2,4-dimethoxypyrimidin-5-yl)phenyl]-4-oxo-1H-quinoline-3-carboxamide]	–	25 to 100%
COc1c(C(=O)Nc2ccc(C(C)(C)C)c(O)c2)cnc2ccccc12 [Compound 415, N-(3-Hydroxy-4-tert-butyl-phenyl)-4-methoxy-quinoline-3-carboxamide]	–	25 to 100%
CC(CO)(CO)c1ccc(NC(=O)c2c[nH]c3cccc(O)c3c2=O)cc1 [Compound 493, 5-hydroxy-N-[4-[2-hydroxy-1-(hydroxymethyl)-1-methyl-ethyl]phenyl]-4-oxo-1H-quinoline-3-carboxamide]	–	25 to 100%
CCCOc1ccc(N)cc1NC(=O)c1c[nH]c2ccccc2c1=O [Compound 17, N-(5-Amino-2-propoxy-phenyl)-4-oxo-1H-quinoline-3-carboxamide]	–	25 to 100%
CCOc1ccccc1-c1cc(C(C)(C)C)c(O)cc1NC(=O)c1c[nH]c2ccccc2c1=O [Compound 23, N-[2-(2-ethoxyphenyl)-5-hydroxy-4-tert-butyl-phenyl]-4-oxo-1H-quinoline-3-carboxamide]	–	25 to 100%
O=C(Nc1ccc(N2CCOCC2)nc1)c1c[nH]c2ccccc2c1=O [Compound 400, N-(6-morpholino-3-pyridyl)-4-oxo-1H-quinoline-3-carboxamide]	–	< 25%
O=C(Nc1csc(C(F)(F)F)c1-c1ccccc1)c1c[nH]c2ccccc2c1=O [Compound 708, 4-oxo-N-[4-phenyl-5-(trifluoromethyl)-3-thienyl]-1H-quinoline-3-carboxamide]	–	25 to 100%
CC(C)(C)OC(=O)N1CCCc2ccc(NC(=O)c3c[nH]c4ccccc4c3=O)cc21 [Compound 183, 7-[(4-oxo-1H-quinolin-3-yl)carbonylamino]-1,2,3,4-tetrahydroquinoline-1-carboxylic acid tert-butyl ester]	–	25 to 100%
Cc1c[nH]c2cc(NC(=O)c3c[nH]c4ccccc4c3=O)ccc12 [Compound 113, N-(3-methyl-1H-indol-6-yl)-4-oxo-1H-quinoline-3-carboxamide]	–	25 to 100%

SMILES	EC50	Emax
O=C(Nc1ccc2c(C(F)(F)F)c[nH]c2c1)c1c[nH]c2ccccc2c1=O [Compound 545, 4-oxo-N-[3-(trifluoromethyl)-1H-indol-6-yl]-1H-quinoline-3-carboxamide]	–	> 100%
O=C(Nc1ccc2c(c1)CCO2)c1c[nH]c2ccccc2c1=O [Compound 467, N-(2,3-dihydrobenzofuran-5-yl)-4-oxo-1H-quinoline-3-carboxamide]	–	< 25%
O=C(Nc1ccc(N2CCC[C@@H]2C(=O)O)cc1C(F)(F)F)c1c[nH]c2ccccc2c1=O [Compound 698, (R)-1-[4-[(4-oxo-1H-quinolin-3-yl)carbonylamino]-3-(trifluoromethyl)phenyl]pyrrolidine-2-carboxylic acid]	–	25 to 100%
N#CCc1ccc(NC(=O)c2c[nH]c3ccccc3c2=O)cc1 [Compound 110, N-[4-(cyanomethyl)phenyl]-4-oxo-1H-quinoline-3-carboxamide]	–	< 25%
CN(C)CCS(=O)(=O)Nc1cc(NC(=O)c2c[nH]c3ccccc3c2=O)cc(C(F)(F)F)c1 [Compound 359, N-[3-(2-dimethylaminoethylsulfonylamino)-5-(trifluoromethyl)phenyl]-4-oxo-1H-quinoline-3-carboxamide]	–	25 to 100%
O=C(Nc1ccccc1-c1ccccc1OC(F)(F)F)c1c[nH]c2ccccc2c1=O [Compound 156, 4-oxo-N-[2-[2-(trifluoromethoxy)phenyl]phenyl]-1H-quinoline-3-carboxamide]	–	25 to 100%
O=C(Nc1ccc(N2CCC[C@H]2CO)cc1C(F)(F)F)c1c[nH]c2ccccc2c1=O [Compound 634, (S)-N-(4-(2-(hydroxymethyl)pyrrolidin-1-yl)-2-(trifluoromethyl)phenyl)-4-oxo-1,4-dihydroquinoline-3-carboxamide]	–	25 to 100%
Cc1ccnc(NC(=O)c2c[nH]c3ccccc3c2=O)c1 [Compound 84, N-(4-methyl-2-pyridyl)-4-oxo-1H-quinoline-3-carboxamide]	–	< 25%
CC(C)(C)OC(=O)Nc1ccc(C(C)(C)C)c(NC(=O)c2c[nH]c3ccccc3c2=O)c1 [Compound 353, [3-[(4-oxo-1H-quinolin-3-yl)carbonylamino]-4-tert-butyl-phenyl]aminoformic acid tert-butyl ester]	–	25 to 100%
Cc1cccc(-c2ccccc2NC(=O)c2c[nH]c3ccccc3c2=O)c1 [Compound 52, N-[2-(m-tolyl)phenyl]-4-oxo-1H-quinoline-3-carboxamide]	–	25 to 100%
O=C(Nc1ccc(C2CCCCC2)c(O)c1)c1c[nH]c2cccc(O)c2c1=O [Compound 522, N-(4-cyclohexyl-3-hydroxy-phenyl)-5-hydroxy-4-oxo-1H-quinoline-3-carboxamide]	–	25 to 100%
O=C(Nc1cccc(S(=O)(=O)N2CCCCC2)c1)c1c[nH]c2ccccc2c1=O [Compound 442, 4-oxo-N-[3-(1-piperidylsulfonyl)phenyl]-1H-quinoline-3-carboxamide]	–	< 25%
O=C(Nc1cc(O)c(Cl)cc1F)c1c[nH]c2ccccc2c1=O [Compound 695, N-(4-chloro-2-fluoro-5-hydroxy-phenyl)-4-oxo-1H-quinoline-3-carboxamide]	–	25 to 100%
O=C(Nc1ccc(-c2ccccc2)cn1)c1c[nH]c2ccccc2c1=O [Compound 402, 4-oxo-N-(5-phenyl-2-pyridyl)-1H-quinoline-3-carboxamide]	–	< 25%
Cc1cccc2[nH]cc(C(=O)Nc3cc4[nH]ccc4cc3C(F)(F)F)c(=O)c12 [Compound 661, 5-methyl-4-oxo-N-[5-(trifluoromethyl)-1H-indol-6-yl]-1H-quinoline-3-carboxamide]	–	25 to 100%
Cc1ccc2cccc(NC(=O)c3c[nH]c4ccccc4c3=O)c2n1 [Compound 364, N-(2-methyl-8-quinolyl)-4-oxo-1H-quinoline-3-carboxamide]	–	25 to 100%
CC(C)(C)c1ccc(NC(=O)c2c[nH]c3ccc(F)cc3c2=O)cc1F [Compound 527, 6-fluoro-N-(3-fluoro-4-tert-butyl-phenyl)-4-oxo-1H-quinoline-3-carboxamide]	–	25 to 100%
Cc1ccccc1-c1ccccc1NC(=O)c1c[nH]c2ccccc2c1=O [Compound 199, N-[2-(o-tolyl)phenyl]-4-oxo-1H-quinoline-3-carboxamide]	–	25 to 100%
CCC(C)c1ccccc1NC(=O)c1c[nH]c2ccccc2c1=O (stereo not shown) [Compound 142, 4-oxo-N-(2-sec-butylphenyl)-1H-quinoline-3-carboxamide]	–	25 to 100%
CC(C)(C)c1cc(C(C)(C)C)c(NC(=O)c2c[nH]c3ccc(Cl)cc3c2=O)cc1O [Compound 623, 6-chloro-N-(5-hydroxy-2,4-ditert-butyl-phenyl)-4-oxo-1H-quinoline-3-carboxamide]	–	25 to 100%
COc1cc(NC(=O)c2c[nH]c3ccccc3c2=O)cc2ccccc12 [Compound 717, N-(4-methoxy-2-naphthyl)-4-oxo-1H-quinoline-3-carboxamide]	–	25 to 100%
